According to paper PMC8662641, “Site-Specific Labeling of Endogenous Proteins Using CoLDR Chemistry” (Journal of the American Chemical Society, 2021):
Values joined by “and” are separate entries in the source; they are usually repeats but may differ in a detail not shown here. Identical values can stand only once.

Assays:
[1] = target: T1, BTK-1h (Homo sapiens, UniProt Q06187); test: High-throughput screening with 1h-labeled BTK; type: binding
T1 construct: The BTK kinase domain was diluted to 2 μM in the buffer, and 2 μM 1h was added; made in house
T1 sequence (Q06187 402-655): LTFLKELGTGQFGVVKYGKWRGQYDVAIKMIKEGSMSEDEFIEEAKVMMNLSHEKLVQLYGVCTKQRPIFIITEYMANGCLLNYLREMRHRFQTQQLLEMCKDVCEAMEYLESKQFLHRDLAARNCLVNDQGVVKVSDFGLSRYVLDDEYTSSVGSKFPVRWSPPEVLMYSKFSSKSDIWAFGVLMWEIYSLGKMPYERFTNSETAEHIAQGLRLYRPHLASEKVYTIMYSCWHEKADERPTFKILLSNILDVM
Description: The collection was composed of BTK binding compounds obtained in our previous luminescence screen[37] (Data set S2). […] The resulting BTK-1h (50 μL) was added to the inhibitors.

[2] = target: BTK (Homo sapiens, UniProt Q06187); design: BTK kinase domain was expressed and purified as previously reported; made in house; method as in Reddi et al., J. Am. Chem. Soc. 2021, 143 (13), 4979–4992; settings: ref Reddi et al., J. Am. Chem. Soc. 2021, 143 (13), 4979–4992; cited from earlier work
BTK, sequence (Q06187 402-655 limits assumed): as the sequence (Q06187 402-655) above

[3] = Dataset S2A, 200 μM compound, BTK-1h, 32 °C, 10 min
[4] = Dataset S2C, BTK-1h with inhibitor

Row | FI (650)/FI (620) [1, 3] | FI (BTK-1h)/FI (BTK-1h+Inhibitor) at 620 nm [1, 3] | FI (BTK-1h)/FI (BTK-1h+Inhibitor) at 620 nm ([1]; Dataset S2B, 200 μM inhibitor added to BTK-1h (2 μm)) | SMILES | BTK Inhibition reported in luminescence assay* [2] | FI (650)/FI (620) [1, 4]
1 | 1.028 | 1.018 | – | CCCCc1oc2ccccc2c1C(=O)c1cc(I)c(OCCN(CC)CC)c(I)c1.Cl [PCM-0064561-003] | 75.5 | –
2 | 0.8396 | 1.036 | – | O=c1cc(-c2ccc(O)cc2)oc2cc(O)cc(O)c12 [PCM-0064643-001] | 63.8 | –
3 | 0.9335 | 1.037 | – | CC(C)(C)c1cc(/C=C(\C#N)C(N)=S)cc(C(C)(C)C)c1O [PCM-0064936-001] | 82.8 | –
4 | 0.8604 | 1.035 | – | COCCOC(=O)C1=C(C)NC(C)=C(C(=O)OC/C=C/c2ccccc2)C1c1cccc([N+](=O)[O-])c1 (stereo not drawn) [PCM-0065102-001] | 59.9 | –
5 | 0.8526 | 1.036 | – | Cl.Cl.Fc1ccc(C(c2ccc(F)cc2)N2CCN(C/C=C/c3ccccc3)CC2)cc1 [PCM-0065210-003] | 87.2 | –
6 | 1.378 | 1.018 | – | Cl.O=C(c1ccc(OCCN2CCCCC2)cc1)c1c(-c2ccc(O)cc2)sc2cc(O)ccc12 [PCM-0065394-003] | 85.5 | –
7 | 1.449 | 1.019 | – | Cl.Cl.O=C1c2c(O)ccc(O)c2C(=O)c2c(NCCNCCO)ccc(NCCNCCO)c21 [PCM-0065547-003] | 51 | –
8 | 1.0625 | 1.055 | – | Cl.O=C1Cc2cc(CCN3CCN(c4nsc5ccccc45)CC3)c(Cl)cc2N1 [PCM-0065598-003] | 52.1 | –
9 | 1.399 | 1.003 | – | C[n+]1cc2c3c(ccc2c2ccc4cc5c(cc4c21)OCO5)OCO3.[Cl-] [PCM-0065605-002] | 75.7 | –
10 | 0.9972 | 1.029 | – | CN(Cc1ccc(C(C)(C)C)cc1)Cc1cccc2ccccc12.Cl [PCM-0086068-001] | 62.3 | –
11 | 2.125 | 1.0702 | – | O=c1cc(-c2ccc(O)c(O)c2)oc2cc(O)cc(O)c12 [PCM-0086559-001] | 84.8 | –
12 | 0.933 | 1.031 | – | O=c1c(O)c(-c2ccc(O)cc2)oc2cc(O)cc(O)c12 [PCM-0087037-002] | 67.7 | –
13 | 1.357 | 1.072 | – | COC(=O)C1=C(C)NC(C)=C(C(=O)OCCN2CCN(C(c3ccccc3)c3ccccc3)CC2)C1c1cccc([N+](=O)[O-])c1.Cl.Cl (stereo not drawn) [PCM-0090281-005] | 101.2 | –
14 | 0.8568 | 1.076 | – | CCOc1nc2cccc(C(=O)OC(C)OC(=O)OC3CCCCC3)c2n1Cc1ccc(-c2ccccc2-c2nn[nH]n2)cc1 (stereo not drawn) [PCM-0090385-001] | 53.7 | –
15 | 1.089 | 1.079 | – | COc1cc2c(Nc3ccc(NC(=O)c4ccccc4)cc3)ncnc2cc1OCCCN1CCOCC1 [PCM-0094881-002] | 77.9 | –
16 | 1.037 | 1.095 | – | NCC(=O)Nc1ccc(-n2nc(C(F)(F)F)cc2-c2ccc3c(ccc4ccccc43)c2)cc1 [PCM-0094886-003] | 70.3 | –
17 | 1.661 | 1.3808 | – | CO[C@@H](C(=O)N1Cc2[nH]nc(NC(=O)c3ccc(N4CCN(C)CC4)cc3)c2C1)c1ccccc1 [PCM-0094888-003] | 85.5 | –
18 | 0.9254 | 1.084 | – | CN(C)C/C=C/C(=O)Nc1cc2c(Nc3ccc(F)c(Cl)c3)ncnc2cc1O[C@H]1CCOC1 [PCM-0094907-003] | 84.8 | –
19 | 1.048 and 1.073 | 1.015 and 1.028 | – | CC(O)C(=O)O.CN1CCN(c2ccc3nc(-c4c(N)c5c(F)cccc5[nH]c4=O)[nH]c3c2)CC1.O [PCM-0094915-004] | 53.8 | –

Row | FI (650)/FI (620) [1, 3] | FI (BTK-1h)/FI (BTK-1h+Inhibitor) at 620 nm [1, 3] | FI (BTK-1h)/FI (BTK-1h+Inhibitor) at 620 nm ([1]; Dataset S2B, 200 μM inhibitor added to BTK-1h (2 μm)) | SMILES | BTK Inhibition reported in luminescence assay* [2] | FI (650)/FI (620) [1, 4]
20 | 1.097 and 1.08 | 1.121 and 1.125 | – | COc1cc2nccc(Oc3ccc(NC(=O)C4(C(=O)Nc5ccc(F)cc5)CC4)cc3)c2cc1OC [PCM-0094920-004] | 123.4 | –
21 | 1.123 | 1.05 | – | COc1cc2nccc(Oc3ccc(NC(=O)Nc4cc(C)on4)c(Cl)c3)c2cc1OC [PCM-0094927-002] | 84.1 | –
22 | 2.2858 | 1.798 | – | O=C(Nc1c[nH]nc1-c1nc2ccc(CN3CCOCC3)cc2[nH]1)NC1CC1 [PCM-0094942-002, AT9283] | 93.8 | 1.798
23 | 1.167 | 1.045 | – | O=C(Nc1ccc(OC(F)(F)F)cc1)c1sccc1NCc1ccnc2ccccc12 [PCM-0094951-002] | 90.3 | –
24 | 1.066 | 1.085 | – | CS(=O)(=O)O.O=C(Nc1cccc(Cl)c1)Nc1ncc(CCNc2ncnc3ccsc23)s1 [PCM-0094983-002] | 73.1 | –
25 | 1.149 | 1.02 | – | C=CC(=O)Nc1cccc(Oc2nc(Nc3ccc(N4CCN(C)CC4)cc3)ncc2Cl)c1 [PCM-0095023-002] | 91.7 | –
26 | 1.274 | 1.071 | – | Cc1nc(N)sc1-c1ccnc(Nc2ccc(N3CCOCC3)cc2)n1 [PCM-0095025-002] | 57.2 | –
27 | 0.9704 | 1.038 | – | C=CC(=O)Nc1cccc(Oc2nc(Nc3ccc(N4CCN(C)CC4)cc3OC)ncc2Cl)c1 [PCM-0095043-002] | 89 | –
28 | 1.86 | 1.055 | – | O=C(NCCCNc1nc(Nc2cccc(NC(=O)N3CCCC3)c2)ncc1I)c1cccs1 [PCM-0095061-002] | 60 | –
29 | 0.9721 | 1.036 | – | CCOc1cc2ncc(C#N)c(Nc3ccc(F)c(Cl)c3)c2cc1NC(=O)/C=C/CN(C)C [PCM-0095063-002] | 96.6 | –
30 | 1.105 | 1.137 | – | NC(=O)Nc1cc(-c2cccc(F)c2)sc1C(=O)N[C@H]1CCCNC1 [PCM-0095092-003] | 86.9 | –
31 | 1.107 | 1.042 | – | CCCCCCCCCCCCc1ccc(S(=O)(=O)Nc2nncs2)cc1 [PCM-0095111-002] | 53.8 | –
32 | 1.117 | 1.096 | – | CCc1cccc(CC)c1NC(=O)N1Cc2[nH]nc(NC(=O)c3ccc(N4CCN(C)CC4)cc3)c2C1 [PCM-0095127-002] | 65.5 | –
33 | 1.616 | 1.107 | – | Nc1cccc(-c2cc3c(Oc4cccc(O)c4)ncnc3[nH]2)c1 [PCM-0095147-003] | 82.1 | –
34 | 0.9795 | 1.036 | – | Cc1[nH]c(/C=C2\C(=O)Nc3ccccc32)c(C)c1CCC(=O)O [PCM-0095149-002] | 52.4 | –
35 | 1.503 | 1.506 | – | O=C(Nc1cccc2c(=O)cc(-c3nn[nH]n3)oc12)c1ccc(OCCCCc2ccccc2)cc1 [PCM-0095155-002] | 73.8 | –
36 | 0.9335 | 1.115 | – | Cl.Cl.Cl.O[C@@H](COc1cccc2ncccc12)CN1CCN(C2c3ccccc3[C@@H]3[C@H](c4ccccc42)C3(F)F)CC1 (stereo partly drawn) [PCM-0095161-003] | 102.7 | –
37 | 1.022 | 1.075 | – | Cc1ccc(C(=O)Nc2ccc(CN3CCN(C)CC3)c(C(F)(F)F)c2)cc1C#Cc1cnc2cccnn12 [PCM-0095174-003] | 92.4 | –
38 | – | 2.544 | 4.404 | CC#CC(=O)N1CC[C@@H](n2c(=O)n(-c3ccc(Oc4ccccc4)cc3)c3c(N)ncnc32)C1 [PCM-0215519-001, ONO-4059] | – | –

Row | SMILES | FI (650)/FI (620) [1, 3] | FI (BTK-1h)/FI (BTK-1h+Inhibitor) at 620 nm [1, 3] | FI (BTK-1h)/FI (BTK-1h+Inhibitor) at 620 nm ([1]; Dataset S2B, 200 μM inhibitor added to BTK-1h (2 μm)) | BTK Inhibition reported in luminescence assay* [2] | FI (650)/FI (620) [1, 4]
39 | N#CC(C#N)=Cc1ccc(O)c(O)c1 [PCM-0064867-001] | 0.9306 | 1.013 | – | 54.5 | –
40 | O=C(O)c1cc(O)c2c(c1)[C@@H]([C@H]1c3cc(C(=O)O)cc(O)c3C(=O)c3c(O[C@@H]4O[C@H](CO)[C@@H](O)[C@H](O)[C@H]4O)cccc31)c1cccc(O[C@@H]3O[C@H](CO)[C@@H](O)[C@H](O)[C@H]3O)c1C2=O [PCM-0086913-003, Sennoside B] | – | 1.82 | – | 84.1 | 1.82
